The subject of one data set is CAPAN-1. The data set is described as follows: Antiproliferative activity against human CAPAN-1 BRCA2-/- cells assessed as inhibition of cell growth incubated for 7 days by CCK-8 assay. The following applies: CAPAN-1, 168 h. Type of data set: functional, cell-based.
Data set [1] has as its target Poly [ADP-ribose] polymerase 1 (Homo sapiens, UniProt P09874). The data set is described as follows: Inhibition of PARP1 (unknown origin) incubated for 1 hr by ELISA analysis. For orientation: ELISA stands for enzyme-linked immunosorbent assay.
In another data set the test system is MDA-MB-436. Briefly: Antiproliferative activity against human MDA-MB-436 BRCA1-/- cells assessed as inhibition of cell growth incubated for 7 days by CCK-8 assay. The data set is classed as functional, cell-based. The following applies: MDA-MB-436, 168 h.
Data set [2] can be described thus: Selectivity ratio of IC50 for antiproliferative activity against human Olaparib-resistant CAPAN-1 cells to IC50 for antiproliferative activity against human CAPAN-1 BRCA2-/- cells. Type of data set: functional.
Data set [3] relates to Olaparib-resistant CAPAN-1. Briefly: Antiproliferative activity against human Olaparib-resistant CAPAN-1 cells assessed as inhibition of cell growth incubated for 7 days by CCK-8 assay. As to conditions: Olaparib-resistant CAPAN-1, 168 h. The data set is classed as functional, cell-based. A general note: Formazan colour is commonly taken as a measure of viable cells.
A short description of data set [4]: Antiproliferative activity against human Simmiparib-resistant CAPAN-1 cells assessed as inhibition of cell growth incubated for 7 days by CCK-8 assay. As to conditions: CAPAN-1, 168 h. The data set is classed as functional, cell-based.
The target in data set [5] is Voltage-gated inwardly rectifying potassium channel KCNH2 (Homo sapiens, UniProt Q12809). Briefly: Inhibition of hERG. The data set is classed as toxicity.
Chain of Voltage-gated inwardly rectifying potassium channel KCNH2 (Q12809 whole entry): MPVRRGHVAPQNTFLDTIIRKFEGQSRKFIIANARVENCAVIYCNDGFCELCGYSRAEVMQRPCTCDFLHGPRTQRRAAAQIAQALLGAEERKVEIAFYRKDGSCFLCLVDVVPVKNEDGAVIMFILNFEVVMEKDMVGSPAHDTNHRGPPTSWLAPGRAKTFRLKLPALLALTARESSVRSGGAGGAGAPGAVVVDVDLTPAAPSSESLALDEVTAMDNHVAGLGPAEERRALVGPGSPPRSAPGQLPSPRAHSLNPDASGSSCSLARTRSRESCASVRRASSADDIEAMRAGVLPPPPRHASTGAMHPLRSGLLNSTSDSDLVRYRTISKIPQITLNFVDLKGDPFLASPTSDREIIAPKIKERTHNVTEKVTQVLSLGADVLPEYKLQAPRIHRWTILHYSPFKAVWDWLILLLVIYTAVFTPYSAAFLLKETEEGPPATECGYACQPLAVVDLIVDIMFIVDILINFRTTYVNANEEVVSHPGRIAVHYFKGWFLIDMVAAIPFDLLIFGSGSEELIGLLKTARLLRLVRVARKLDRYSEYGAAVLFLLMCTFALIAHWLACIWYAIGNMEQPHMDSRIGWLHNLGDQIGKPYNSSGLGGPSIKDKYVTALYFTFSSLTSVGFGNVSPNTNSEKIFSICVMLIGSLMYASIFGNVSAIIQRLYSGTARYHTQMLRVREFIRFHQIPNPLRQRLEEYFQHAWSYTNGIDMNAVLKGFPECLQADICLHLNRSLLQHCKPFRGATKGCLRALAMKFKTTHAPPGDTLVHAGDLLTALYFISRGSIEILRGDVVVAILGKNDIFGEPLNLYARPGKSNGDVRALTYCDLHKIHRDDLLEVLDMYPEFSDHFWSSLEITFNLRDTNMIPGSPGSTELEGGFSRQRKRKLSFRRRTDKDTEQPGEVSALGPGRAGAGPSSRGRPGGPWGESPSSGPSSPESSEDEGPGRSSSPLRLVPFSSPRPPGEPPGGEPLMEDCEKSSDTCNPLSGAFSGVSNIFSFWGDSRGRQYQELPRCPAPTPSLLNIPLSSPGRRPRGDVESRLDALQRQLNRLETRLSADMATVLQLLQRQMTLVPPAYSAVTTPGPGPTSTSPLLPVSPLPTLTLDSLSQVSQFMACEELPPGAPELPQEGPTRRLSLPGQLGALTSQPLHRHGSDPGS
A short description of data set [6]: Selectivity ratio of IC50 for antiproliferative activity against human Talazoparib-resistant CAPAN-1 cells to IC50 for antiproliferative activity against human CAPAN-1 BRCA2-/- cells. The data set is classed as functional.
Data set [7] can be described thus: Antiproliferative activity against human Talazoparib-resistant CAPAN-1 cells assessed as inhibition of cell growth incubated for 7 days by CCK-8 assay. The data set is classed as functional, cell-based. The following applies: CAPAN-1, 168 h.
A short description of data set [8]: Selectivity ratio of IC50 for antiproliferative activity against human Simmiparib-resistant CAPAN-1 cells to IC50 for antiproliferative activity against human CAPAN-1 BRCA2-/- cells. Type of data set: functional.
Data set [9] in a line: Cytotoxicity against Chinese hamster V-C8 BRCA2-/- cells assessed as reduction in cell viability. The data set is classed as toxicity, cell-based, Cricetulus griseus.

As a reminder, the pIC50 is the negative decadic logarithm of the IC50, by convention in mol/L. The CC50 is the concentration that lowers cell viability or growth by half.

Molecules are shown by their SMILES. pIC50: −log10 of the molar value.

Chain of Poly [ADP-ribose] polymerase 1 (P09874 whole entry): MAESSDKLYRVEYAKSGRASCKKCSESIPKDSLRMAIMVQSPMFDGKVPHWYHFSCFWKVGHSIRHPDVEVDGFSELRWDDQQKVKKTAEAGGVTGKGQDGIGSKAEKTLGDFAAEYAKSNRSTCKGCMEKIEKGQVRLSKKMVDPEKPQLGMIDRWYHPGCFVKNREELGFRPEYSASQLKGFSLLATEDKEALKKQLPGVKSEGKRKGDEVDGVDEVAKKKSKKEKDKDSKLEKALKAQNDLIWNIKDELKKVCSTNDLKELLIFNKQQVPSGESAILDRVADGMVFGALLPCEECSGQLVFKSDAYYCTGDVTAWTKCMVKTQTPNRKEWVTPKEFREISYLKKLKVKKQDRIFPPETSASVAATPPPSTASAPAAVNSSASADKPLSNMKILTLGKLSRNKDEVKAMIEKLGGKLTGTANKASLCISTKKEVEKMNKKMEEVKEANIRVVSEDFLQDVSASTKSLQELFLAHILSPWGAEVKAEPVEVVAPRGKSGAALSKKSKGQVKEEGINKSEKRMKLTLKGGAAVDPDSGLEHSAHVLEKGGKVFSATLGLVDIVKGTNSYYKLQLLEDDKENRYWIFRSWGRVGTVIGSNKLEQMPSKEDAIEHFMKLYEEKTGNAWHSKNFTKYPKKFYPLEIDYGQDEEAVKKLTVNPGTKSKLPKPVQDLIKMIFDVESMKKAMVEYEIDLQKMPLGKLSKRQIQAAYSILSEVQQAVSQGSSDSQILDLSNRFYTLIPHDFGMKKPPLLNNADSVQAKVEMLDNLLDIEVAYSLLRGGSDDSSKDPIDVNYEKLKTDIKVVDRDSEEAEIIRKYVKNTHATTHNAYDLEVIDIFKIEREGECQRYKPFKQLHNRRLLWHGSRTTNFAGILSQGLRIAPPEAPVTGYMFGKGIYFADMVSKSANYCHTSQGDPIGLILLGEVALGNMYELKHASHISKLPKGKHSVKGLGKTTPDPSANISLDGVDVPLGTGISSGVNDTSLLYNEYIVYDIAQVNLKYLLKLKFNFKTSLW

Consider `CC1CN(C(=O)c2cc(Cc3n[nH]c(=O)c4ccccc34)ccc2F)Cc2nnc(CN(C)C)n21` (stereo unspecified), for which the negative-log IC50 (pIC50) is 5.85 with CAPAN-1 and 7.75 in data set [1].

Turning to `CC1CN(C(=O)c2cc(Cc3n[nH]c(=O)c4ccccc34)ccc2F)Cc2nnc(C(F)(F)C(F)(F)F)n21` (stereo unspecified), the negative-log IC50 (pIC50) with CAPAN-1 was 8.60; in the data set on MDA-MB-436 it was 8.72; in data set [3], 5.75; in data set [4], 5.82; in data set [5], 4.40; in data set [7], 6.57. This compound showed a pIC50 in data set [1] of 8.39. For the same compound, the “Ratio IC50” value in data set [2] is 590; in data set [6] it was 91; in data set [8] it was 509.

Take `CC1CN(C(=O)c2cc(Cc3n[nH]c(=O)c4ccccc34)ccc2F)Cc2nnc(-c3ccsc3)n21` (stereo unspecified): the pIC50 was 8.14 in the data set with CAPAN-1 and 8.70 in [1].

As to `CC1CN(C(=O)c2cc(Cc3n[nH]c(=O)c4ccccc34)ccc2F)Cc2nnc(C(F)(F)Cl)n21` (stereo unspecified), the negative-log IC50 (pIC50) in the data set with CAPAN-1 is 8.47; in the data set with MDA-MB-436, 9.52; in [1], 8.47.

As for `CC1c2ccccc2CCN1C(=O)c1cc(Cc2n[nH]c(=O)c3ccccc23)ccc1F` (stereo unspecified), the pIC50 in [1] is 7.37.

As to `CC1CN(C(=O)c2cc(Cc3n[nH]c(=O)c4ccccc34)ccc2F)Cc2nnc(CCl)n21` (stereo unspecified), the pIC50 in the data set on MDA-MB-436 was 8.57; in data set [1], above 9.52.

As for `CC1CN(C(=O)c2cc(Cc3n[nH]c(=O)c4ccccc34)ccc2F)Cc2nnc(-c3cnccn3)n21` (stereo unspecified), the pIC50 with CAPAN-1 is 8.14; in the data set with MDA-MB-436, above 9.52; in data set [1], 8.40.

`CC1CN(C(=O)c2cc(Cc3n[nH]c(=O)c4ccccc34)ccc2F)Cc2nnc(-c3cccs3)n21` (stereo unspecified): the pIC50 in the data set on MDA-MB-436 was 8.96; in data set [3], 5.33; in [4], 5.48; in data set [5] it was 5.39; in [7], 6.14; in data set [1], 9.15. The entries for the “Ratio IC50” value in data set [2], in data set [6] and in data set [8] were 717, 112 and 507, respectively.

As for `CC1CN(C(=O)c2cc(Cn3c(=O)[nH]c(=O)c4ccccc43)ccc2F)Cc2nnc(-c3ccccn3)n21` (stereo unspecified), the pIC50 in data set [1] was 8.34.

With `CC1CN(C(=O)c2cc(Cc3n[nH]c(=O)c4ccccc34)ccc2F)Cc2nnc(-c3cnn(C)c3)n21` (stereo unspecified), the negative-log IC50 (pIC50) in the data set with CAPAN-1 is 6.66; with MDA-MB-436 it was 7.68; in data set [1], 8.55.

Turning to `Cn1ncnc1[C@H]1c2n[nH]c(=O)c3cc(F)cc(c23)N[C@@H]1c1ccc(F)cc1` [TALAZOPARIB], the entries for the “Ratio IC50” value in [2], in [6] and in [8] were 1344, 666 and 1749, respectively. The figures for the pIC50 in [3], in data set [4] and in data set [7] were 6.44, 6.32 and 6.74, respectively.

Compound `CC1CN(C(=O)c2cc(Cc3n[nH]c(=O)c4ccccc34)ccc2F)Cc2nnc(C(O)CO)n21` (stereo unspecified) gave a pIC50 in data set [1] of 7.68.

With `CC1c2cc(F)ccc2CCN1C(=O)c1cc(Cc2n[nH]c(=O)c3ccccc23)ccc1F` (stereo unspecified), the negative-log IC50 (pIC50) in data set [1] was 7.15.

In [1], `Cc1cc(Cc2ccc(F)c(C(=O)N3Cc4nnc(-c5ccccn5)n4C(C)C3)c2)n[nH]c1=O` (stereo unspecified) had a pIC50 below 6.00.

Regarding `CC1CN(C(=O)c2cc(Cc3n[nH]c(=O)c4ccccc34)ccc2F)Cc2nnc(-c3ccccn3)n21` (stereo unspecified), the negative logarithm of the IC50 (pIC50) in the data set on CAPAN-1 was 9.00; in the data set on MDA-MB-436, above 9.52; in data set [3] it was 6.53; in [4], 6.36; in data set [5], 4.76; in data set [7], 7.01. The compound further had a pIC50 in data set [1] of 8.70. The “Ratio IC50” value is 165 in data set [2], 55 in [6] and 247 in [8].

On to `CC(C)c1nnc2n1C(C)CN(C(=O)c1cc(Cc3n[nH]c(=O)c4ccccc34)ccc1F)C2` (stereo unspecified), for which the pIC50 in data set [1] was 8.39.

Compound `CC1CN(C(=O)c2cc(Cc3n[nH]c(=O)c4ccccc34)ccc2F)Cc2nncn21` (stereo unspecified) showed a pIC50 in data set [1] of 8.03.

`CC1(C)Cn2nncc2CN1C(=O)c1cc(Cc2n[nH]c(=O)c3ccccc23)ccc1F` showed a pIC50 in [1] below 6.00.

On to `CC1CN(C(=O)c2cc(Cc3n[nH]c(=O)c4ccccc34)ccc2F)Cc2nnc(-c3ccco3)n21` (stereo unspecified), for which the pIC50 with MDA-MB-436 was above 9.52; in data set [1], 8.77.

On to `CC1CN(C(=O)c2cc(Cc3n[nH]c(=O)c4ccccc34)ccc2F)Cc2nnc(C3COC(C)(C)O3)n21` (stereo unspecified), for which the pIC50 in data set [1] was 7.60.

As to `CC1(C)CN(C(=O)c2cc(Cc3n[nH]c(=O)c4ccccc34)ccc2F)Cc2cnnn21`, the pIC50 in [1] was below 6.00.

On to `CC1CN(C(=O)c2cc(Cc3n[nH]c(=O)c4ccccc34)ccc2F)Cc2nnc(C(F)F)n21` (stereo unspecified), for which the results for the pIC50 (in the data set with CAPAN-1; in the data set with MDA-MB-436; in data set [1]) were 7.53, 8.54 and 8.37, respectively.

Regarding `CC1Cn2nncc2CN1C(=O)c1cc(Cc2n[nH]c(=O)c3ccccc23)ccc1F` (stereo unspecified), the pIC50 in data set [1] is below 6.00.

`Cc1c(Cc2ccc(F)c(C(=O)N3Cc4nnc(-c5ccccn5)n4C(C)C3)c2)n[nH]c(=O)c1C` (stereo unspecified): the pIC50 in data set [1] is 7.21.

The compound `CC1CN(C(=O)c2cc(Cc3ccc(=O)[nH]n3)ccc2F)Cc2nnc(-c3ccccn3)n21` (stereo unspecified) showed a negative logarithm of the IC50 (pIC50) in data set [1] of 6.02.

Regarding `CC1CN(C(=O)c2cc(Cc3n[nH]c(=O)c4ccccc34)ccc2F)Cc2cnnn21` (stereo unspecified), in data set [1], the pIC50 was below 6.00.

In the case of `CC1CN(C(=O)c2cc(Cc3n[nH]c(=O)c4ccccc34)ccc2F)Cc2nnc(C3CC3)n21` (stereo unspecified), the values for the pIC50 (in the data set on CAPAN-1; with MDA-MB-436; in data set [1]) were 7.22, 8.12 and 8.49, respectively.

For `CC1CN(C(=O)c2cc(Cc3n[nH]c(=O)c4ccccc34)ccc2F)Cc2nnc(CO[Si](C)(C)C(C)(C)C)n21` (stereo unspecified), in the data set on CAPAN-1, the pIC50 was 7.26.

As for `CC1CN(C(=O)c2cc(Cc3n[nH]c(=O)c4ccccc34)ccc2F)Cc2nnc(-c3cncs3)n21` (stereo unspecified), the pIC50 with CAPAN-1 is 7.67; in [1] it was 8.24.

Take `CC1CN(C(=O)c2cc(Cc3n[nH]c(=O)c4ccccc34)ccc2F)Cc2nnc(C(F)(F)F)n21` (stereo unspecified): the negative logarithm of the IC50 (pIC50) in the data set with MDA-MB-436 is 8.89; in data set [3], 7.70; in [4], 7.70; in data set [7], 7.70. Moreover, in data set [9], the half-maximal cytotoxic concentration (CC50) was determined as 42 nM.

Turning to `CC1CN(C(=O)c2cc(Cc3n[nH]c(=O)c4ccccc34)ccc2F)Cc2nnc(-c3ncc[nH]3)n21` (stereo unspecified), the pIC50 with CAPAN-1 was 7.86; with MDA-MB-436 it was 8.72; in data set [1], 8.49.

In data set [1], `CC1CN(C(=O)c2cc(COc3ccccc3C(N)=O)ccc2F)Cc2nnc(-c3ccccn3)n21` (stereo unspecified) had a pIC50 of 6.64.

In data set [1], `O=C(c1cc(Cc2n[nH]c(=O)c3ccccc23)ccc1F)N1CCc2ccccc2C1C1CC1` (stereo unspecified) showed a pIC50 of 6.74.

Regarding `CC1CN(C(=O)c2cc(Cc3n[nH]c(=O)c4ccccc34)ccc2F)Cc2nnc(CF)n21` (stereo unspecified), in [1], the pIC50 is 7.92.

Compound `COc1ccc2c(c1)C(C)N(C(=O)c1cc(Cc3n[nH]c(=O)c4ccccc34)ccc1F)CC2` (stereo unspecified) gave a pIC50 in data set [1] of 6.97.

`CC1CN(C(=O)c2cc(Cc3n[nH]c(=O)c4ccccc34)ccc2F)Cc2nnc(-c3c[nH]cn3)n21` (stereo unspecified) showed a negative logarithm of the IC50 (pIC50) in data set [1] of 7.88.

As to `CC1CN(C(=O)c2cc(Cc3n[nH]c(=O)c4ccccc34)ccc2F)Cc2nnc(-c3nccn3C)n21` (stereo unspecified), in [1], the negative-log IC50 (pIC50) is 8.11.

Regarding `CC1CN(C(=O)c2cc(Cc3n[nH]c(=O)c4ccccc34)ccc2F)Cc2nnc(CO)n21` (stereo unspecified), the negative-log IC50 (pIC50) in [1] is 8.04.

On to `O=C1NCC2c3c(cccc31)CCN2C(=O)c1cc(Cc2n[nH]c(=O)c3ccccc23)ccc1F` (stereo unspecified), for which the half-maximal cytotoxic concentration (CC50) in data set [9] amounted to 96 nM.

The values above are taken from ChEMBL document CHEMBL5625224, “Identification of [1,2,4]Triazolo[4,3-a]pyrazine PARP1 inhibitors with overcome acquired resistance activities” (Eur J Med Chem, 2023).
